The test system of data set [1] is SW620 human colon carcinoma xenograft. Particulars: literature (ref 26); cited from earlier work.
Data set [2] in a line: Human liver microsomal stability. The format is in vitro ADME. Particulars: human liver microsomes, after a 30 min incubation. The protocol:
Compounds (10 μM) were incubated with mixed gender pooled human liver microsomes (1 mg·mL^−1) protein in the presence of NADPH (1 mM), UDPGA (2.5 mM) and MgCl2 (3 mM) in phosphate buffered saline (10 mM) at 37° C. Incubations were conducted for 0 and 30 minutes. Control incubations were generated by the omission of NADPH and UDPGA from the incubation reaction. The percentage compound remaining was determined after analysis by LCMS.

Another data set deals with Aurora-A (Homo sapiens (Human), UniProt O14965). Particulars: read-out: Aurora-A IC50; biochemical assay. The protocol:
Aurora kinase assays: Aurora kinase IC50 values were determined as previously described.^26, 36

The target in another data set is CYP3A4 (Homo sapiens (Human), UniProt P08684). Briefly: Inhibition of CYP isozymes in human liver microsomes, CYP3A4. Particulars: read-out: Estimated IC50 CYP3A4, probe Midazolam.
CYP3A4, sequence (P08684 whole entry): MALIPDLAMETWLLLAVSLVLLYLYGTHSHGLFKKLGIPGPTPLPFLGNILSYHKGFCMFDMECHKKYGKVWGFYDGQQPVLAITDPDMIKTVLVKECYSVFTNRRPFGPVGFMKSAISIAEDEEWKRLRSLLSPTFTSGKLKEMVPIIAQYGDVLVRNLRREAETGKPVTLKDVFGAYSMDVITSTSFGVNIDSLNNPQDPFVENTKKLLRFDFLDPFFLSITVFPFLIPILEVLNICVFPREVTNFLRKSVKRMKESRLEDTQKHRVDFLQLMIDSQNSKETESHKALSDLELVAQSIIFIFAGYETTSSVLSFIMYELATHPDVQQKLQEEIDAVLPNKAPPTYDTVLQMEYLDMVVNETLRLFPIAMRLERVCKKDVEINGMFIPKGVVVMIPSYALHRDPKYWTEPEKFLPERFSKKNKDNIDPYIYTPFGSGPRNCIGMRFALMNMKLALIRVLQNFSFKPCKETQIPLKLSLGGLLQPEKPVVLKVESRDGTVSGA
In data set [3] the target is T1, hERG (Homo sapiens (Human), UniProt Q12809).
T1 sequence (Q12809 whole entry): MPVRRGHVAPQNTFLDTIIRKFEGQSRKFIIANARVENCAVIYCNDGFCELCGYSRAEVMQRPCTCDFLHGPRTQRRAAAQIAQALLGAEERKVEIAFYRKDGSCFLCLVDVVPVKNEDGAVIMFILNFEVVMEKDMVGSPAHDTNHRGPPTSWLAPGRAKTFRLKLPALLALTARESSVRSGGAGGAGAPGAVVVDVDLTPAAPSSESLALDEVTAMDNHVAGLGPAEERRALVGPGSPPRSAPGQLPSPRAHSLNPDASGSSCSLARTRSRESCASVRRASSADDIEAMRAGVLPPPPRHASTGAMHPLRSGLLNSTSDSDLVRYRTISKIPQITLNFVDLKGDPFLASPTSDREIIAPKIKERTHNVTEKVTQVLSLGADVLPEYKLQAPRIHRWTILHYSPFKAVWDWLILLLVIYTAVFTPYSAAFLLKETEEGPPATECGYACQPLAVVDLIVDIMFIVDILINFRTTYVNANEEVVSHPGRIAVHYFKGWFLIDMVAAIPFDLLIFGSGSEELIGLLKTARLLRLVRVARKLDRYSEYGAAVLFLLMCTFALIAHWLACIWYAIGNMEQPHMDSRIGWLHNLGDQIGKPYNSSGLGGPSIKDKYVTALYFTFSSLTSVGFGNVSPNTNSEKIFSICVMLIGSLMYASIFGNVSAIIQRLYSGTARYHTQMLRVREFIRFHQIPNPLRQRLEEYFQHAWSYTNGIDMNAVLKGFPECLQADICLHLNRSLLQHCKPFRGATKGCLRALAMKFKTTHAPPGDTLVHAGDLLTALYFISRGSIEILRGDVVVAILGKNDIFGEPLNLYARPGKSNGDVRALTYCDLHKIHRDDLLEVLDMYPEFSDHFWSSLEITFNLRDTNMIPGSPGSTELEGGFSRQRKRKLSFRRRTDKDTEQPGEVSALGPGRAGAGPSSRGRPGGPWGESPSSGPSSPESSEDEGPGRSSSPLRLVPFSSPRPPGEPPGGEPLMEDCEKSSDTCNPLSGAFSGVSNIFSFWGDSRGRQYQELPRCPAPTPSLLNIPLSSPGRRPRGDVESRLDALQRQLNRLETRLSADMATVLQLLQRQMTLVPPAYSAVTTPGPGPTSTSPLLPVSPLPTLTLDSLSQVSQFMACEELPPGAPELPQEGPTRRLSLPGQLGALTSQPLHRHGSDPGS
In a further data set the target is CYP2C9 (Homo sapiens (Human), UniProt P11712). Briefly: Inhibition of CYP isozymes in human liver microsomes, CYP2C9.
CYP2C9, sequence (P11712 whole entry): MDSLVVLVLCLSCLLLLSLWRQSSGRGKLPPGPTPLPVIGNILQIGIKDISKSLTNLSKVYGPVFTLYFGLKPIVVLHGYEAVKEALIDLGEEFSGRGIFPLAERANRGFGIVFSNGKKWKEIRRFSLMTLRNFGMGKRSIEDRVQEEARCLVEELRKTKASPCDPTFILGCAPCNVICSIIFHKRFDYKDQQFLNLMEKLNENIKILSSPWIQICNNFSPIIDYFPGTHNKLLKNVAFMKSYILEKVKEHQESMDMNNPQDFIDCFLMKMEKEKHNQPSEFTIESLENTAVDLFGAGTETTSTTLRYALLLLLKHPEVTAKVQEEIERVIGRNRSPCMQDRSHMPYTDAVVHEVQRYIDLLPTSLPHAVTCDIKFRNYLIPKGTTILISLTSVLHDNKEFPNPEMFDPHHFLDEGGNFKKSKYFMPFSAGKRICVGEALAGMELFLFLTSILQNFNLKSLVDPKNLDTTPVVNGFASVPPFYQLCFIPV
In another data set the target is CYP2D6 (Homo sapiens (Human), UniProt P10635). Briefly: Inhibition of CYP isozymes in human liver microsomes, CYP2D6. For orientation: Microsomes from liver hold many membrane-bound enzymes, among them those of drug oxidation.
CYP2D6, sequence (P10635 whole entry): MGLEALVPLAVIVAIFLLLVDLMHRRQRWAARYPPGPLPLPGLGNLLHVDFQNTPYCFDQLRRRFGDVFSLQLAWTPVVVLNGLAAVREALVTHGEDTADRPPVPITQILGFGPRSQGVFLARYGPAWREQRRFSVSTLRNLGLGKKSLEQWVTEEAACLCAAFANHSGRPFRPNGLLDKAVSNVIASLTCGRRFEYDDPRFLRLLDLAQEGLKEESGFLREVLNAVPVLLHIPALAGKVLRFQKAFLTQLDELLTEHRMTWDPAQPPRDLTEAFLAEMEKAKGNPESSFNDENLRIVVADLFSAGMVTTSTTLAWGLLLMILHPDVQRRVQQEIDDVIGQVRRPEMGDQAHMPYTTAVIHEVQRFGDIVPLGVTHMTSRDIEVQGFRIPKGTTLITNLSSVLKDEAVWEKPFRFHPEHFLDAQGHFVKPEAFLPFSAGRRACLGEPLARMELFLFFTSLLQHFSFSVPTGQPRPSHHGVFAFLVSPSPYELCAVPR
The target of another data set is CYP2C19 (Homo sapiens (Human), UniProt P33261). Description: Inhibition of CYP isozymes in human liver microsomes, CYP2C19.
CYP2C19, sequence (P33261 whole entry): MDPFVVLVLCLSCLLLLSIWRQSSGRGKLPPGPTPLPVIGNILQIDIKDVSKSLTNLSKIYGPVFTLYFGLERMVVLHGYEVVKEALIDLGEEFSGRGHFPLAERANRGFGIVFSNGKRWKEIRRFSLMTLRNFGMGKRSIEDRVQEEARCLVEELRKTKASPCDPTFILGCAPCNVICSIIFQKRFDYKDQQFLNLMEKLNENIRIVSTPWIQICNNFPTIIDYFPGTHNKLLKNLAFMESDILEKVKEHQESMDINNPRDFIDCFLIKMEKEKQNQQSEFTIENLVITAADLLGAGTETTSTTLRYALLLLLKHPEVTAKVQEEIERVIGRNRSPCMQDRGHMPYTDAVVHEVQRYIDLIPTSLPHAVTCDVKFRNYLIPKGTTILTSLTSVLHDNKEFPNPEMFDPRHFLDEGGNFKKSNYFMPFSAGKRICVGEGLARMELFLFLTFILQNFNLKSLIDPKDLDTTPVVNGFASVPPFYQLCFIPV
A further data set deals with CYP1A2 (Homo sapiens (Human), UniProt P05177). Description: Inhibition of CYP isozymes in human liver microsomes, CYP1A2.
CYP1A2, sequence (P05177 whole entry): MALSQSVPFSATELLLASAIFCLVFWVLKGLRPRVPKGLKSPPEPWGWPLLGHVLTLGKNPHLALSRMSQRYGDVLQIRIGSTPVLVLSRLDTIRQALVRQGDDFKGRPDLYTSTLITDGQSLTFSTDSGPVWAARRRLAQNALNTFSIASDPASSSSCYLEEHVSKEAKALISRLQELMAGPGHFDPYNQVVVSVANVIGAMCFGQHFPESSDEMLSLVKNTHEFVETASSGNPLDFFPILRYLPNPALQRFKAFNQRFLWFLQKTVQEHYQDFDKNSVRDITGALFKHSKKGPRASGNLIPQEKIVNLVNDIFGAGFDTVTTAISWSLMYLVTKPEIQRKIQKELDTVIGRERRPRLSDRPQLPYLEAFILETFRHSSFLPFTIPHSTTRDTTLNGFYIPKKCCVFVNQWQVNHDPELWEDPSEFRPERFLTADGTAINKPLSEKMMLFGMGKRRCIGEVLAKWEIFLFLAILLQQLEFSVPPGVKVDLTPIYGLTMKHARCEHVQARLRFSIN
The next data set deals with CYP2A6 (Homo sapiens (Human), UniProt P11509). Briefly: Inhibition of CYP isozymes in human liver microsomes, CYP2A6. Particulars: read-out: Estimated IC50 CYP2A6, probe Coumarin.
CYP2A6, sequence (P11509 whole entry): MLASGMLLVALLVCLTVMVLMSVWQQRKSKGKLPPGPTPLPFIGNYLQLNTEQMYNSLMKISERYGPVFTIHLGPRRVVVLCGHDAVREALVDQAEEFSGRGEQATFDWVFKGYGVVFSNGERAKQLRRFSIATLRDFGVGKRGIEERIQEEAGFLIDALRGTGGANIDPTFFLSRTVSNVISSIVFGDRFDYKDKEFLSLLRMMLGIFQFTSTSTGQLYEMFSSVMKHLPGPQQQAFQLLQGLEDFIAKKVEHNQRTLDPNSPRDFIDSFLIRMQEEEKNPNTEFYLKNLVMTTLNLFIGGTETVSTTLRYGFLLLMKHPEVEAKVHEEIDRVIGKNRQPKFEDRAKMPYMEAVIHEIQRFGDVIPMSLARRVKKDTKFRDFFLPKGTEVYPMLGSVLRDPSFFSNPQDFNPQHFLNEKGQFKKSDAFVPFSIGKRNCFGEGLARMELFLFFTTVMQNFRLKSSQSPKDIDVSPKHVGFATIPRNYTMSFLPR
For the next data set, the target named is FLT3(D835H) (Homo sapiens (Human), UniProt P36888, D835H). Description: KINOMEScan FLT3(D835H). Particulars: 1 μM primary screening. Format: binding. The protocol:
(§1) Kinase selectivity profiling: Kinase profiling using the KINOMEScan™ technology and Kd determinations were performed by KINOMEscan, a Division of DiscoveRx Corporation, San Diego, Calif., USA; www.kinomescan.com.

The subject of data set [4] is histone H-3 phosphorylation at S10. Briefly: 4-day PK/PD study: histone H-3 phosphorylation in MV4-11 xenografts. Format: in vivo, mouse. Particulars: 50 and 100 mg/kg oral twice daily, 4 days. The protocol: (§2) Tumour samples were obtained 2 h after the final dose. Total histone H3, total Stat5 and GAPDH were used as loading controls.
For a further data set, the target named is Aurora-B (Homo sapiens (Human), UniProt Q96GD4). Description: KINOMEScan Aurora-B. Format: binding. Particulars: read-out: % control Aurora-B. The method, then:
as §1

Data set [5] in a line: Mouse liver microsomal stability. Format: in vitro ADME. Particulars: mouse liver microsomes, after a 30 min incubation. The protocol:
Compounds (10 μM) were incubated with male CD1 mouse liver microsomes (1 mg·mL^−1) protein in the presence of NADPH (1 mM), UDPGA (2.5 mM) and MgCl2 (3 mM) in phosphate buffered saline (10 mM) at 37° C. Incubations were conducted for 0 and 30 minutes. Control incubations were generated by the omission of NADPH and UDPGA from the incubation reaction. The percentage compound remaining was determined after analysis by LCMS.

Data set [6] relates to 442-kinase panel (386 non-mutant kinases). Briefly: KINOMEScan kinase selectivity profiling, 442-kinase panel. Format: binding. Particulars: 1 μM; >90% competition. The method, then:
as §1

Data set [7] concerns phosphorylation of STAT5 at Y694. Briefly: 4-day PK/PD study: STAT5 phosphorylation in MV4-11 xenografts. Particulars: 50 and 100 mg/kg oral twice daily, 4 days. Format: in vivo, mouse. The protocol:
as §2

The test system of data set [8] is HCT116 human colon carcinoma. Briefly: Cell viability assay, HCT116. Format: cell-based. Particulars: HCT-116.
The test system of data set [9] is MV4-11 human tumour xenografts. Description: Human tumour xenograft efficacy study (MV4-11). The format is in vivo. From the text:
Brit J Cancer 102: 1555-1577, 2010.

A further data set concerns the target FLT3 (Homo sapiens (Human), UniProt P36888). Description: KINOMEScan FLT3. Format: binding. Particulars: 1 μM primary screening. The method, then: as §1
The nature of a further data set: Log D measurement. Format: physicochemical. Particulars: pH 7.4, experimentally determined value. The method, then: Physicochemical properties: Log D and pKa measurements were performed by Pharmorphix® Solid State Services, Member of the Sigma-Aldrich Group, Cambridge, UK.
The next data set addresses FLT3(D835Y) (Homo sapiens (Human), UniProt P36888, D835Y). Briefly: KINOMEScan FLT3(D835Y). Particulars: 1 μM primary screening. The format is binding. The method, then: as §1
The target of a further data set is FLT3-ITD (Homo sapiens, UniProt P36888). Briefly: KINOMEScan FLT3-ITD. Format: binding. Particulars: 1 μM primary screening. The protocol: as §1
Data set [10] deals with T1, hERG. Description: hERG inhibition (cell-based electrophysiology, hERG tail current). (In general: Block of hERG is tested as a sign of cardiac risk.)

Several values for one entry are separate records, joined by “and”; a condition that tells them apart may be missing. Equal entries are not always repeated. Where two headings read alike, the source gives them in different places.

Aurora-A, sequence (O14965 whole entry): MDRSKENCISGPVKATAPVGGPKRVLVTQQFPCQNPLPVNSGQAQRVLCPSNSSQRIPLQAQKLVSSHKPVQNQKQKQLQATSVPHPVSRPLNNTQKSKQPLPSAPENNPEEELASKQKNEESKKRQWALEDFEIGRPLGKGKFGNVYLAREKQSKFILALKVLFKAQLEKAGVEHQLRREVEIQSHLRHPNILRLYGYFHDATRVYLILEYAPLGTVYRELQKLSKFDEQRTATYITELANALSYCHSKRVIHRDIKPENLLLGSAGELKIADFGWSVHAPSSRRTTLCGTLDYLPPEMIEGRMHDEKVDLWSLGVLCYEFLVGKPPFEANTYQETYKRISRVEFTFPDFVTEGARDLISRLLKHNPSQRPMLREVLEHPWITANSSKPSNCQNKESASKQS
Aurora-B, sequence (Q96GD4 whole entry): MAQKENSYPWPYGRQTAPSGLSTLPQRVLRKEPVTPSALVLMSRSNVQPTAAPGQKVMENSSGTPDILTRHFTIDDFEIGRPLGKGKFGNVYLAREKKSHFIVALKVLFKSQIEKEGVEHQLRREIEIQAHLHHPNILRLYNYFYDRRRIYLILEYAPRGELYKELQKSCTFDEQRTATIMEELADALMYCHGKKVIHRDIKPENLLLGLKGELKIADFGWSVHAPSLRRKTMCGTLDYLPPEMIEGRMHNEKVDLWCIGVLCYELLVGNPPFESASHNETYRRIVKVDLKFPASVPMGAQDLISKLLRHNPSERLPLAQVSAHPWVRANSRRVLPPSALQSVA

Take `Cc1cc(CN2CCN(c3c(Br)cnc4nc(-c5ccc(N6CCN(C)CC6)cc5)[nH]c34)CC2)no1` [CCT137690, reference compound]: in data set [1], the “growth of a SW620 human colon carcinoma xenograft in vivo” value was “inhibits the growth”. Also, the “HLM: Percentage of parent compound metabolised” value (“HLM: Percentage” for short) in data set [2] was determined as 86%.

Turning to `Cn1cc(-c2nc3c(N4CCN(Cc5cccnc5)CC4)c(Br)cnc3[nH]2)cn1` [Comparator 1, 6-bromo-2-(1-methyl-1H-pyrazol-4-yl)-7-(4-(pyridine-3-ylmethyl)piperazin-1-yl)-3H-imidazo[4,5-b]pyridine], the IC50 at Aurora-A is 0.032 µM; at CYP3A4 it was below 1 µM; against hERG [3] it was 5.5 µM; at CYP2C9, 10 to 50 µM; against CYP2D6 it was 1 to 10 µM; at CYP2C19 it was 10 to 50 µM. Also, the results for the IC50 against CYP1A2 and on CYP2A6 were 10 to 50 µM and above 50 µM, respectively.

Turning to `Cc1nn(C)c(C)c1-c1nc2c(N3CCN(Cc4cccnc4)CC3)c(Br)cnc2[nH]1` [Comparator 2, 6-bromo-7-(4-(pyridine-3-ylmethyl)piperazin-1-yl)-2-(1,3,5-trimethyl-1H-pyrazol-4-yl)-3H-imidazo[4,5-b]pyridine], the IC50 at Aurora-A is 0.3 µM; on CYP3A4, below 1 µM; on hERG [3] it was 10.8 µM; against CYP2C9, 10 to 50 µM; against CYP2D6 it was 10 to 50 µM; against CYP2C19 it was 10 to 50 µM. The IC50 on CYP2A6 was above 50 µM.

Consider `Cc1nn(C)cc1-c1nc2c(N3CCN(Cc4ccc(Cl)cc4)CC3)c(Cl)cnc2[nH]1` [Example 1, 6-Chloro-7-(4-(4-chlorobenzyl)piperazin-1-yl)-2-(1,3-dimethyl-1H-pyrazol-4-yl)-3H-imidazo[4,5-b]pyridine], for which the “competition for FLT3(D835H)” value on FLT3(D835H) is “greater than 94%”. The “histone H-3 phosphorylation” value in data set [4] was “clear inhibition”. In addition, the Vd in the data set “In vivo full PK in mouse” (female, Balb/C, plasma, 5 mg/kg) was 0.066 L and ~3.3 L/kg. Further, in the data set “In vivo full PK in mouse” (female, Balb/C, plasma, iv, 5 mg/kg), the clearance was 0.967 mL/min. Besides, the “AUCinf, (iv)” value in the data set “In vivo full PK in mouse” (iv 5 mg/kg) is 3.753 µM·h. For the same compound, in the data set “In vivo full PK in mouse” (iv 5 mg/kg), the “Cl, (iv)” value turned out to be 0.058 L/h. In addition, the “t½, (iv)” value in “In vivo full PK in mouse” (iv 5 mg/kg) worked out at 50.4 min. The “F % (po)” value in “In vivo full PK in mouse” (oral 5 mg/kg) was determined as 100%. In addition, at Aurora-B, the remaining binding at 1 µM was determined as 1%. In [5], the “MLM: Percentage of parent compound metabolised” value (from here on “MLM: Percentage”) was 34%. Further, the “hits from the 386 non-mutant kinases tested” value in data set [6] stood at 22. Besides, the STAT5 phosphorylation result in [7] is on record as “inhibition of STAT5 phosphorylation”. This compound also displayed a GI50 in [8] of 0.3 µM. The “day single mice were culled (mean tumour volume increased by over 500%)” value was 28 days and 31 days in data set [9] (50 mg/kg); 46 days and 56 days in data set [9] (100 mg/kg). In [9] (50 mg/kg dosing schedule), the “tumour volume, % of the initial volume after 11 days” value was 42%. Besides, the “tumours when therapy was discontinued after 11 days” value in data set [9] (100 mg/kg dosing schedule) was “undetectable”. In addition, the “toxicity as defined by body weight loss” value in data set [9] (athymic mice, oral 50 and 100 mg/kg) is reported as “no observed toxicity”. Further, the “growth of MV4-11 human tumour xenografts” value in data set [9] (athymic mice, oral 50 and 100 mg/kg, dose dependent) is given as “strongly inhibited the growth”. In addition, in data set [9] (each treatment group (50 and 100 mg/kg), study terminated on day 60), the “mice that failed to develop progressively growing tumours” value was determined as 60%. In addition, the IC50 was above 50 µM on CYP3A4, above 25 µM against hERG [3] and above 50 µM at CYP2A6. The “competition for FLT3 kinase” value on FLT3 is “greater than 94%”. For the same compound, the LogD7.4 entry in the data set “Log D measurement” was “^cLogD7.4 = 3.84 (experimentally determined value)”. The “competition for FLT3(D835Y)” value at FLT3(D835Y) was “greater than 94%”. In addition, the “competition for FLT3-ITD” value on FLT3-ITD is recorded as “greater than 94%”. Moreover, in data set [2], the “HLM: Percentage” value is given as 10%.

On to `Cc1nn(C)cc1-c1nc2c(N3CCN(Cc4ncon4)CC3)c(Cl)cnc2[nH]1` [Example 2, 3-((4-(6-Chloro-2-(1,3-dimethyl-1H-pyrazol-4-yl)-3H-imidazo[4,5-b]pyridin-7-yl)piperazin-1-yl)methyl)-1,2,4-oxadiazole], for which the “MLM: Percentage” value in [5] is reported as 67%. Moreover, the IC50 on CYP3A4 was above 50 µM. The “HLM: Percentage” value in [2] is given as 22%.

On to `Cc1nc(CN2CCN(c3c(Cl)cnc4[nH]c(-c5cn(C)nc5C)nc34)CC2)no1` [Example 3, 3-((4-(6-Chloro-2-(1,3-dimethyl-1H-pyrazol-4-yl)-3H-imidazo[4,5-b]pyridin-7-yl)piperazin-1-yl)methyl)-5-methyl-1,2,4-oxadiazole], for which the “MLM: Percentage” value in data set [5] is on record as 58%. The half-maximal inhibitory concentration (IC50) was above 50 µM at CYP3A4, 9.5 µM against hERG [10], above 50 µM against CYP2C19 and above 50 µM on CYP2A6. Moreover, the “HLM: Percentage” value in data set [2] worked out at 20%.

By IC50 is commonly meant the concentration at which inhibition is half-maximal. By Vd is commonly meant a proportionality between amount in the body and measured concentration, not a real space. A higher Vd goes with extensive tissue distribution. A word on the clearance: it is a measure of how efficiently the substance is removed, as volume per time. The low end stands for a low capacity for elimination, the high end for a high capacity for elimination. As a reminder, the GI50 is the concentration that inhibits growth by half. The low end stands for greater sensitivity of the cells, the high end for lower sensitivity of the cells.

(Values after US9447092B2, “Pharmaceutically active compounds” (CANCER RESEARCH TECHNOLOGY LIMITED, priority 2012, dated 2016).)
